Data: patent US4157392A, “Pharmacologically active substituted 1,2,4-triazines” (Diamond Shamrock Corporation, priority 1978, dated 1979)
Structures can show the parent of a compound that is named as a salt. Where two headings read alike, the source gives them in different places.

System: phenylquinone writhing in mice
Test: Phenylquinone Writhing Assay (analgesia)
Assay type: in vivo, mouse (Carworth CF1 male mice)
Conditions: Mus musculus, po, read-out: Phenylquinone Writhing Assay (% Control), percent analgesia; for responders at 60 mg/kg: 60 mg/kg oral; for responders at 25 mg/kg: 25 mg/kg oral; for responders at 50 mg/kg: 50 mg/kg oral; for responders at 100 mg/kg: 100 mg/kg oral; for responders at 30 mg/kg: 30 mg/kg oral; for responders at 75 mg/kg: 75 mg/kg oral
Description: The phenylquinone writhing test was employed to evaluate analgesic activity according to the following procedure:
Phenylquinone (phenyl-p-benzoquinone, No. 7104, Eastman Organic Chemicals) is made up as a 0.02% aqueous solution in 5% ethyl alcohol. Phenylquinone solutions are made up fresh twice daily. Standard reference agents and the test compounds are dissolved or suspended in a 0.25% methylcellulose solution. A control group consisting of ten mice (Carworth CF1 male mice) are administered the 0.02% phenylquinone solution at a dose of 0.25 ml/mouse. The mice are housed individually and observed closely for ten minutes for exhibition of writhing. The onset of writhing occurs within three minutes and 100% of the mice must writhe within ten minutes. Test compounds are administered orally to groups of ten mice. The volume given is 0.01 ml/gram of body weight. Activity can be studied at 15, 30, 60, and 120 minutes after oral administration. After the designated time interval of a dose group has elapsed, the mice are challenged with phenylquinone intraperitoneally. Complete blocking of the writhing syndrom for the ten minute observation period in any one mouse is considered a positive analgesic response for that mouse. Conversely, if any mouse writhes definitely once it is considered not to be protected. The number of mice not writhing in group multiplied by ten equals percent analgesia for that dose at that time interval.

SMILES | responders at 100 mg/kg (0.25 h, 15 Min.) | responders at 100 mg/kg (0.5 h, 30 Min.) | responders at 100 mg/kg (1 h, 60 Min) | also measured
CSc1nncc(-c2cccc(Cl)c2)n1 [Example 15, 3-methylthio-5-(3'-chlorophenyl)-1,2,4-triazine] | – | – | – | responders at 60 mg/kg (0.25 h, 15 Min.): 10%
COc1nncc(-c2cccs2)n1 [Example 66, 3-methoxy-5-(2'-thienyl)-1,2,4-triazine] | – | – | – | responders at 25 mg/kg (0.25 h, 15 Min.): 20%; responders at 50 mg/kg (0.25 h, 15 Min.): 80%; responders at 60 mg/kg (0.25 h, 15 Min.): 100%; responders at 25 mg/kg (0.5 h, 30 Min.): 10%; responders at 50 mg/kg (0.5 h, 30 Min.): 50%; responders at 60 mg/kg (0.5 h, 30 Min.): 80%; responders at 50 mg/kg (1 h, 60 Min): 20%; responders at 60 mg/kg (1 h, 60 Min): 40%
NNc1nncc(-c2cccc(C(F)(F)F)c2)n1 [Example 67, 3-hydrazino-5-(3'-trifluoromethylphenyl)-1,2,4-triazine] | 10% | 60% | 40% | responders at 50 mg/kg (0.25 h, 15 Min.): 70%; responders at 25 mg/kg (0.5 h, 30 Min.): 20%; responders at 50 mg/kg (0.5 h, 30 Min.): 30%; responders at 25 mg/kg (1 h, 60 Min): 10%; responders at 50 mg/kg (1 h, 60 Min): 30%
COc1cccc(-c2cnnc(SC)n2)c1 [Example 68, 3-methylthio-5-(3'-methoxyphenyl)-1,2,4-triazine] | – | – | – | responders at 30 mg/kg (0.25 h, 15 Min.): 10%
COc1cccc(-c2cnnc(OC)n2)c1 [Example 69, 3-methoxy-5-(3'-methoxyphenyl)-1,2,4-triazine] | 10% | 20% | 10% | responders at 50 mg/kg (0.25 h, 15 Min.): 10%; responders at 50 mg/kg (0.5 h, 30 Min.): 20%; responders at 50 mg/kg (1 h, 60 Min): 20%
CSc1nncc(-c2ccc(Cl)s2)n1 [Example 70, 3-methylthio-5-(5'-chloro-2'-thienyl)-1,2,4-triazine] | 10% | 20% | 10% | responders at 50 mg/kg (0.25 h, 15 Min.): 10%; responders at 50 mg/kg (0.5 h, 30 Min.): 20%; responders at 50 mg/kg (1 h, 60 Min): 10%
CSc1nncc(-c2cccc3ccccc23)n1 [Example 71, 3-methylthio-5-(1'-naphthyl)-1,2,4-triazine] | – | 10% | 20% | –
CSc1nncc(-c2ccc(C)cc2)n1 [Example 72, 3-methylthio-(4'-methylphenyl)-1,2,4-triazine] | 20% | – | – | –
CSc1nncc(-c2ccc(Cl)cc2)n1 [Example 74, 3-methylthio-5-(4'-chlorophenyl)-1,2,4-triazine] | 10% | – | – | –
COc1nncc(-c2cccc(Cl)c2)n1 [Example 75, 3-methoxy-5-(3'-chlorophenyl)-1,2,4-triazine] | – | – | – | responders at 60 mg/kg (0.25 h, 15 Min.): 100%; responders at 60 mg/kg (0.5 h, 30 Min.): 90%; responders at 60 mg/kg (1 h, 60 Min): 70%
CSc1nnc(-c2ccco2)c(-c2ccco2)n1 [Example 76, 3-methylthio-5,6-bis-(2'-furyl)-1,2,4-triazine] | – | – | – | responders at 30 mg/kg (0.25 h, 15 Min.): 10%
NNc1nnc(-c2ccco2)c(-c2ccco2)n1 [Example 77, 3-hydrazino-5,6-bis-(2'-furyl)-1,2,4-triazine] | – | – | – | responders at 25 mg/kg (0.25 h, 15 Min.): 20%; responders at 75 mg/kg (0.25 h, 15 Min.): 20%; responders at 25 mg/kg (0.5 h, 30 Min.): 20%; responders at 75 mg/kg (0.5 h, 30 Min.): 10%; responders at 25 mg/kg (1 h, 60 Min): 20%; responders at 75 mg/kg (1 h, 60 Min): 10%
Cc1ccc(-c2nnc(C)nc2-c2ccc(C)cc2)cc1 [Example 78, 3-methyl-5,6-bis-(4'-methylphenyl)-1,2,4-triazine] | 50% | 80% | 50% | responders at 50 mg/kg (0.25 h, 15 Min.): 20%; responders at 50 mg/kg (0.5 h, 30 Min.): 20%; responders at 50 mg/kg (1 h, 60 Min): 20%
Cc1nnc(S(C)(=O)=O)nc1C [Example 79, 3-methylsulfonyl-5,6-dimethyl-1,2,4-triazine] | – | 30% | 30% | –
COc1ccc(-c2nnc(SC)nc2-c2ccc(OC)c(OC)c2)cc1OC [Example 80, 3-methylthio-5,6-bis(3',4'-dimethoxyphenyl)-1,2,4-triazine] | 10% | 10% | – | –
c1ccc(-c2nnc(-c3ccccn3)nc2-c2ccccc2)cc1 [Example 81, 3-(2'-pyridyl)-5,6-diphenyl-1,2,4-triazine] | 10% | 20% | – | –

SMILES | responders at 100 mg/kg (0.25 h, 15 Min.) | responders at 100 mg/kg (0.5 h, 30 Min.) | responders at 100 mg/kg (1 h, 60 Min) | also measured
COc1ncc(-c2ccccc2)nn1 [Example 82, 3-methoxy-6-phenyl-1,2,4-triazine] | – | – | – | responders at 25 mg/kg (0.25 h, 15 Min.): 10%; responders at 50 mg/kg (0.25 h, 15 Min.): 10%; responders at 50 mg/kg (0.5 h, 30 Min.): 10%
COc1cc(-c2cnnc(SC)n2)ccc1OCc1ccccc1 [Example 83, 3-methylthio-5-(3'-methoxy-4'-benzyloxyphenyl)-1,2,4-triazine] | 10% | – | – | –
CSc1nncc(-c2c3ccccc3cc3ccccc23)n1 [Example 84, 3-methylthio-5-(9'-anthracenyl)-1,2,4-triazine] | – | 10% | 20% | –
COc1nncc(-c2c3ccccc3cc3ccccc23)n1 [Example 85, 3-methoxy-5-(9'-anthracenyl)-1,2,4-triazine] | 10% | – | – | –
CSc1nncc(-c2ccc3c(c2)OCO3)n1 [Example 86, 3-methylthio-5-(3',4'-methylenedioxyphenyl)-1,2,4-triazine] | 20% | – | – | –
CSc1nncc(C(c2ccccc2)c2ccccc2)n1 [Example 87, 3-methylthio-5-diphenylmethyl-1,2,4-triazine] | 10% | – | 10% | –
CCOc1ccc(-c2cnnc(SC)n2)cc1 [Example 88, 3-methylthio-5-(4'-ethoxyphenyl)-1,2,4-triazine] | 10% | – | – | –
COc1nncc(-c2c(C)cc(C)cc2C)n1 [Example 89, 3-methoxy-5-(2',4',6'-trimethylphenyl)-1,2,4-triazine] | 10% | – | 10% | –
Oc1nncc(-c2ccccc2)n1 [Example 90, 3-hydroxy-5-phenyl-1,2,4-triazine] | – | – | 20% | –
COc1ccc(-c2cnnc(OC)n2)cc1 [Example 91, 3-methoxy-5-(4'-methoxyphenyl)-1,2,4-triazine] | 30% | 10% | – | –
COc1nnc(-c2ccc(OC)c(OC)c2)c(-c2ccc(OC)c(OC)c2)n1 [Example 92, 3-methoxy-5,6-bis(3',4'-dimethoxyphenyl)-1,2,4-triazine] | 10% | 10% | – | –
COc1ccc(-c2nnc(SC)nc2-c2ccc(OC)cc2)cc1 [Example 93, 3-methylthio-5,6-bis(4'-methoxyphenyl)-1,2,4-triazine] | 20% | 30% | 30% | –
CC(C)Oc1nnc(-c2ccccc2)c(-c2ccccc2)n1 [Example 95, 3-isopropoxy-5,6-diphenyl-1,2,4-triazine] | 10% | 10% | 20% | –
COc1nnc(-c2ccc(Cl)cc2)c(-c2ccc(Cl)cc2)n1 [Example 96, 3-methoxy-5,6-bis(4'-chlorophenyl)-1,2,4-triazine] | – | 30% | 10% | –
CC(N)C(=O)NNc1nncc(-c2ccc(Cl)cc2)n1 (stereo not shown) [Example 114, N2-(5-p-chlorophenyl-1,2,4-triazin-3-yl) alanine hydrazide (dihydrobromide hydrate)] | – | – | – | responders at 50 mg/kg (0.25 h, 15 Min.): 50%; responders at 50 mg/kg (0.5 h, 30 Min.): 50%; responders at 50 mg/kg (1 h, 60 Min): 60%
NC(Cc1ccccc1)C(=O)NNc1nncc(-c2ccccc2)n1 (stereo not shown) [Example 116, N2-(5-phenyl-1,2,4-triazin-3-yl) phenylalanine hydrazide (dihydrobromide hydrate)] | 30% | 60% | 60% | –
